Measured values from patent US12054498B2, “Heteroaromatic macrocyclic ether chemotherapeutic agents” (Nuvalent, Inc., priority 2020, dated 2024).

Tests used:
Format in all cases: cell-based
[1] = biological target: T1, Ba/F3 cells EML4-ALK L1196M/G1202R (variant 1) (Homo sapiens, UniProt Q9UM73, G1202R/L1196M); assay: Ba/F3 cell proliferation assay, EML4-ALK L1196M/G1202R (variant 1); details: 72 hours, CellTiter-Glo
T1 construct: echinoderm microtubule-associated protein-like 4 (EML4) gene and the ALK tyrosine kinase domain; host or cells: Ba/F3 (RIKEN), retroviral pMSCV-puro; the other entry of the earlier key: EML4 (Q9HC35, Echinoderm microtubule-associated protein-like 4)
From the text: (§1) Genes encoding CD74-ROS1 wild-type (wt), CD74-ROS1 G2032R, CD74-ROS1 S1986F, CD74-ROS1 L2026M, CD74-ROS1 D2033N, EML4-ALK wt (variant 1), EML4-ALK G1202R (variant 1), EML4-ALK L1196M/G1202R (variant 1), EML4-ALK G1202R/G1269A (variant 1), EML4-ALK G1202R/L1198F (variant 1), and TPM3-TRKA were synthesized at GeneRay, cloned into the retroviral construct pMSCV-puro (Biovector), and packaged into retroviral particles. The virus was used to infect Ba/F3 cells (RIKEN) at multiplicity of infection=1 for 1 day. Infected cells were rescued in media (RPMI-1640 with 10% fetal bovine serum and 1% streptomycin and penicillin) supplemented with mouse IL-3 (10 ng/mL) for 2 days, and stable cell lines were selected by IL-3 withdrawal and puromycin (0.8 μg/mL) for 7 days. Monoclones were selected by single-cell dilution in IL-3-free medium containing puromycin (0.8 μg/mL). Transformation of desired genes was confirmed by Sanger sequencing and western blot using the following antibodies: ROS1 (CST #3287), ALK (CST #3633), and pan-TRK (Abcam #76291).
(§2) Cell Proliferation Assay Stable cells were plated at 1,000 cells/well (40 μL) in a 384-well plate for 1 day.
(§3) Test compounds (40 nL) were then added in a 3-fold dilution series using the TECAN EVO200 liquid handler and incubated for 72 hours. Plates were equilibrated at room temperature for 15 minutes followed by addition of 40 μL CellTiter-Glo reagent (Promega).
(§4) Luminescence was measured on a plate reader. Half-maximal inhibitory concentration (IC50) was calculated from percent inhibition and inhibitor concentration using four-parameter logistic regression. […] (nd=not determined).

[2] = biological target: T2, Ba/F3 cells CD74-ROS1 G2032R (Homo sapiens, UniProt P08922, G2032R); assay: Ba/F3 cell proliferation assay, CD74-ROS1 G2032R; details: 72 hours, CellTiter-Glo
T2 construct: fusion of the C-terminus of ROS1 with the N-terminus of various partner proteins; host or cells: Ba/F3 (RIKEN), retroviral pMSCV-puro; the other entry of the earlier key: CD74 (P04233, HLA class II histocompatibility antigen gamma chain)
Method: (§5) The virus was used to infect Ba/F3 cells (RIKEN) at multiplicity of infection=1 for 1 day. Infected cells were rescued in media (RPMI-1640 with 10% fetal bovine serum and 1% streptomycin and penicillin) supplemented with mouse IL-3 (10 ng/mL) for 2 days, and stable cell lines were selected by IL-3 withdrawal and puromycin (0.8 μg/mL) for 7 days. Monoclones were selected by single-cell dilution in IL-3-free medium containing puromycin (0.8 μg/mL).
as §2, §3, §4

[3] = biological target: T3, Ba/F3 cells TPM3-TRKA (Homo sapiens, UniProt P04629); assay: Ba/F3 cell proliferation assay, TPM3-TRKA; details: 72 hours, CellTiter-Glo, read-out: TPM3-NTRK1-wt IC50
T3 construct: host or cells: Ba/F3 (RIKEN), retroviral pMSCV-puro; the other entry of the earlier key: TPM3 (P06753, Tropomyosin alpha-3 chain)
From the text: as §1, §2, §3, §4

[4] = tested on: TPM3-NTRK1-wt IC50 / primary target IC50 (e.g. CD74-ROS1-wt); assay: TRKA selectivity in Ba/F3 cells (TRKA potency divided by primary target potency); details: for TPM3-NTRK1-wt/CD74-ROS1-G2032R selectivity ratio: TRKA potency / CD74-ROS1-G2032R potency; for TPM3-NTRK1-wt/CD74-ROS1-wt selectivity ratio: TRKA potency / CD74-ROS1-wt potency; for TPM3-NTRK1-wt/EML4-ALK-L1196M-G1202R selectivity ratio: TRKA potency / EML4-ALK-L1196M-G1202R potency; for TPM3-NTRK1-wt/EML4-ALK-wt selectivity ratio: TRKA potency / EML4-ALK-wt potency
Method: TRKA selectivity was calculated by dividing a compound's TRKA potency by its primary target potency (e.g. TPM3-NTRK1-wt IC50/CD74-ROS1-wt IC50). Compound selectivity can be interpreted by binning ratio values: bin A for very high selectivity, ratio >30-fold; bin B for high selectivity, ratio >10-fold; bin C for moderate selectivity, ratio ≥1; and bin D for low selectivity, ratio <1. […] (nd=not determined).

[5] = biological target: T4, Ba/F3 cells CD74-ROS1 wild-type (wt) (Homo sapiens, UniProt P08922); assay: Ba/F3 cell proliferation assay, CD74-ROS1 wild-type; details: 72 hours, CellTiter-Glo
T4 construct: fusion of the C-terminus of ROS1 with the N-terminus of various partner proteins; host or cells: Ba/F3 (RIKEN), retroviral pMSCV-puro; the other entry of the earlier key: CD74 (P04233, HLA class II histocompatibility antigen gamma chain)
Method: as §5, §2, §3, §4

[6] = biological target: T5, Ba/F3 cells EML4-ALK wt (variant 1) (Homo sapiens, UniProt Q9UM73); assay: Ba/F3 cell proliferation assay, EML4-ALK wt (variant 1); details: 72 hours, CellTiter-Glo
T5 construct: echinoderm microtubule-associated protein-like 4 (EML4) gene and the ALK tyrosine kinase domain; host or cells: Ba/F3 (RIKEN), retroviral pMSCV-puro; the other entry of the earlier key: EML4 (Q9HC35, Echinoderm microtubule-associated protein-like 4)
From the text: as §1, §2, §3, §4

T4 sequence (P08922 1883-2347 limits assumed): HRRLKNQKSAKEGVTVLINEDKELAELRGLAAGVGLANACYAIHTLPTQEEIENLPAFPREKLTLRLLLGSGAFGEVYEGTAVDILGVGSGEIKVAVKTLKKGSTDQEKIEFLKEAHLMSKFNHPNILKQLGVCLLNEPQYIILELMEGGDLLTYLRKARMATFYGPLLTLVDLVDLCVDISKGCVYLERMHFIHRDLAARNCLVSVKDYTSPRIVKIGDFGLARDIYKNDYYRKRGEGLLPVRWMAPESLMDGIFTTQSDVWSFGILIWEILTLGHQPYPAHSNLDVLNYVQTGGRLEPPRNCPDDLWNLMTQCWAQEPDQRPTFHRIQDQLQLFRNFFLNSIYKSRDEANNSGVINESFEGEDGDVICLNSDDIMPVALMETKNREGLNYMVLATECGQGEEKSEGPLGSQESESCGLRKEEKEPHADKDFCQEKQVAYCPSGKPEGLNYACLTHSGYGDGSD
T3 sequence (P04629 510-796 limits assumed): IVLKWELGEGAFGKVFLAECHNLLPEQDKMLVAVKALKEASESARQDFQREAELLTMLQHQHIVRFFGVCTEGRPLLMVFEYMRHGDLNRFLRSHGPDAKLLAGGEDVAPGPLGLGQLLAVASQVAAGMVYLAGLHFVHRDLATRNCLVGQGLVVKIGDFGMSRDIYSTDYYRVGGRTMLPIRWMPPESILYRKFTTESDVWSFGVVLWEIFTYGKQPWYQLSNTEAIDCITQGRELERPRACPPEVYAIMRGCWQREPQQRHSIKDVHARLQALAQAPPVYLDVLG
T1 sequence (Q9UM73 with tags, fused parts or gaps L1196M/G1202R): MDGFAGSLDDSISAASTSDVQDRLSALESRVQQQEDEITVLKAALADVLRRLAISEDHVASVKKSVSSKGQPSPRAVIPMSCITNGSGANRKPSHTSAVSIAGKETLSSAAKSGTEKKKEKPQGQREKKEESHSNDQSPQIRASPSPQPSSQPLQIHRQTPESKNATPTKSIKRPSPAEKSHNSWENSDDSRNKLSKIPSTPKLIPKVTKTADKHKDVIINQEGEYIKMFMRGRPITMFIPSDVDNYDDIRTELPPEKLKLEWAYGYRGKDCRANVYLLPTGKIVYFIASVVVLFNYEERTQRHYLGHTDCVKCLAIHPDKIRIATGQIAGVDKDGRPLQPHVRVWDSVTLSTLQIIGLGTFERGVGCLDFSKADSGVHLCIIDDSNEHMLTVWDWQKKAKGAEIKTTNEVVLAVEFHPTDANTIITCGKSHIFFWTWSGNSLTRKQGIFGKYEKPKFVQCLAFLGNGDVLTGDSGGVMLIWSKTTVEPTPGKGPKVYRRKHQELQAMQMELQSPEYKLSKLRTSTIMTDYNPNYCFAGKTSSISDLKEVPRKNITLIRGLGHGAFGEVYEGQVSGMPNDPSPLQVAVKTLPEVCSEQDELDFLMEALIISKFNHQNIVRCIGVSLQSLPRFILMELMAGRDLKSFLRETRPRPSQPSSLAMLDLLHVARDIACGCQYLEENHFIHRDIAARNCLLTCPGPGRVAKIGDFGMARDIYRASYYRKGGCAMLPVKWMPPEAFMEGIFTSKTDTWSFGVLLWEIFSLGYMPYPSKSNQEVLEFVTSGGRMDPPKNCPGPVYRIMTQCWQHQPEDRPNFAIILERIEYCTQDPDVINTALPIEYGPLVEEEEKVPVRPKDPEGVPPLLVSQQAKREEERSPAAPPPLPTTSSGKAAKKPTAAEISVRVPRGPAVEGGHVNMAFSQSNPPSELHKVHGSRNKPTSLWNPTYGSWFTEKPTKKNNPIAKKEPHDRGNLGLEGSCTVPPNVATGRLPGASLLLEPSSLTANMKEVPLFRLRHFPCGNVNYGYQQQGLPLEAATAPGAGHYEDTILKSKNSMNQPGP
T2 sequence (P08922 1883-2347 G2032R limits assumed): as the sequence (P08922 1883-2347 limits assumed) above, with G150R counted along it
T5 sequence (Q9UM73 with tags, fused parts or gaps): as the sequence (Q9UM73 with tags, fused parts or gaps L1196M/G1202R) above, with M635L, R641G counted along it

SMILES	IC50 [1]	IC50 [2]	IC50 [3]	TPM3-NTRK1-wt/CD74-ROS1-G2032R selectivity ratio [4]	TPM3-NTRK1-wt/CD74-ROS1-wt selectivity ratio [4]	TPM3-NTRK1-wt/EML4-ALK-L1196M-G1202R selectivity ratio [4]	TPM3-NTRK1-wt/EML4-ALK-wt selectivity ratio [4]	IC50 [5]	IC50 [6]
CCn1ncc2c1-c1cnc(N)c(c1)O[C@H](C)c1cc(F)ccc1-c1cc(Br)nn1C2 [Example 94, (19R)-10-bromo-3-ethyl-16-fluoro-19-methyl-20-oxa-3,4,8,9,23-pentaazapentacyclo[19.3.1.0^2,^6.0^8,^12.0^13,^18]pentacosa-1(24),2(6),4,9,11,13,15,17,21(25),22-decaen-22-amine]	50 to 500 nM	0.1 to 50 nM	50 to 500 nM	A (bin A for very high selectivity, ratio >30-fold)	A (bin A for very high selectivity, ratio >30-fold)	C (bin C for moderate selectivity, ratio ≥1)	B (bin B for high selectivity, ratio >10-fold)	0.1 to 50 nM	0.1 to 50 nM
CCn1nc(Cl)c2c1-c1cnc(N)c(c1)O[C@H](C)c1cc(F)ccc1-c1ncnn1C2 [Example 43, (19R)-5-chloro-3-ethyl-16-fluoro-19-methyl-20-oxa-3,4,8,9,11,23-hexaazapentacyclo[19.3.1.0^2,^6.0^8,^12.0^13,^18]pentacosa-1(24),2,(6),4,9,11,13,15,17,21(25),22-decaen-22-amine]	50 to 500 nM	0.1 to 50 nM	> 500 nM	A (bin A for very high selectivity, ratio >30-fold)	A (bin A for very high selectivity, ratio >30-fold)	C (bin C for moderate selectivity, ratio ≥1)	B (bin B for high selectivity, ratio >10-fold)	0.1 to 50 nM	50 to 500 nM
C[C@H]1Oc2cc(cnc2N)-c2c(cnn2CC2CC2)Cc2nn(C(F)F)nc2-c2ccc(F)cc21 [Example 91, (19R)-3-(cyclopropylmethyl)-10-(difluoromethyl)-16-fluoro-19-methyl-20-oxa-3,4,9,10,11,23-hexaazapentacyclo[19,3.1.0^2,^6.0^8,^12.0^13,^18]pentacosa-1(24),2(6),4,8,11,13,15,17,21(25),22-decaen-22-amine]	0.1 to 50 nM	0.1 to 50 nM	50 to 500 nM	A (bin A for very high selectivity, ratio >30-fold)	A (bin A for very high selectivity, ratio >30-fold)	B (bin B for high selectivity, ratio >10-fold)	A (bin A for very high selectivity, ratio >30-fold)	0.1 to 50 nM	0.1 to 50 nM
CCn1ccc2c1-c1cnc(N)c(c1)O[C@H](C)c1cc(F)ccc1-c1nn(C)nc1C2 [Example 102, (19R)-3-ethyl-16-fluoro-10,19-dimethyl-20-oxa-3,9,10,11,23-pentaazapentacyclo[19.3.1.0^2,^6.0^8,^12.0^13,^18]pentacosa-1(24),2(6),4,8,11,13,15,17,21(25),22-decaen-22-amine]	> 500 nM	50 to 500 nM	> 500 nM	B (bin B for high selectivity, ratio >10-fold)	A (bin A for very high selectivity, ratio >30-fold)	C (bin C for moderate selectivity, ratio ≥1)	B (bin B for high selectivity, ratio >10-fold)	0.1 to 50 nM	50 to 500 nM
CCn1nc(OC)c2c1-c1cnc(N)c(c1)O[C@H](C)c1cc(F)ccc1-c1cc(C)nn1C2 [Example 32, (19R)-3-ethyl-16-fluoro-5-methoxy-10,19-dimethyl-20-oxa-3,4,8,9,23-pentaazapentacyclo[19.3.1.0^2,^6.0^8,^12.0^13,^18]pentacosa-1(24),2(6),4,9,11,13,15,1 7,21(25),22-decaen-22-amine]	50 to 500 nM	0.1 to 50 nM	50 to 500 nM	A (bin A for very high selectivity, ratio >30-fold)	A (bin A for very high selectivity, ratio >30-fold)	C (bin C for moderate selectivity, ratio ≥1)	B (bin B for high selectivity, ratio >10-fold)	0.1 to 50 nM	0.1 to 50 nM
C[C@H]1Oc2cc(cnc2N)-c2c(CC3CC3)noc2Cn2ncnc2-c2ccc(F)cc21 [Example 67, (19R)-3-(cyclopropylmethyl)-16-fluoro-19-methyl-5,20-dioxa-4,8,9,11,23-pentaazapentacyclo[19.3.1.0^2,^6.0^8,^12.0^13,^18]pentacosa-1(24),2(6),3,9,11,13,15,17,21(25),22-decaen-22-amine]	50 to 500 nM	0.1 to 50 nM	> 500 nM	A (bin A for very high selectivity, ratio >30-fold)	A (bin A for very high selectivity, ratio >30-fold)	C (bin C for moderate selectivity, ratio ≥1)	A (bin A for very high selectivity, ratio >30-fold)	0.1 to 50 nM	0.1 to 50 nM
CCn1ncc2c1-c1cnc(N)c(c1)OCc1cc(F)ccc1-c1ccnn1C2 [Example 17, 3-ethyl-16-fluoro-20-oxa-3,4,8,9,23-pentaazapentacyclo[19.3.1.0^2,^6.0^8,^12.0^13,^18]pentacosa-1(24),2(6),4,9,11,13,15,17,21(25),22-decaen-22-amine]	> 500 nM	50 to 500 nM	> 500 nM	A (bin A for very high selectivity, ratio >30-fold)	A (bin A for very high selectivity, ratio >30-fold)	C (bin C for moderate selectivity, ratio ≥1)	B (bin B for high selectivity, ratio >10-fold)	0.1 to 50 nM	50 to 500 nM
